Counter-ions that a name gives are not always drawn.

For one data set, the system named is myasthenia gravis. The data set is described as follows: Example 24: myasthenia gravis. Format: in vivo, human. The settings on record: oral 4×60 mg/d. The method, then:
A person was diagnosed having myasthenia gravis. They suffered from muscle weakness of the arms and hand after physical activity. The diagnosis was confirmed with EMG and positive test for antibodies against acetylcholine receptor (AChR). They were treated with oral anticholinesterase drug (mestinon) 4×60 mg/d. […] The treatment was continued for 2 weeks.

For data set [1], the system named is renal function impairment. The data set is described as follows: Example 16: advanced cervix carcinoma and renal dysfunction. Format: in vivo, human. The settings on record: continuous subdermal 1 mg/kg/hr.
The next data set concerns ALS. Description: Example 18: amyotrophic lateral sclerosis. Format: in vivo, human.
The subject of another data set is terminal cancer patients. The data set is described as follows: Example 17: diverse cancer, palliative. Format: in vivo, human. To be noted: for time to relief of pain, nausea and/or extreme fatigue: continuous subcutaneous 1 mg/kg/hr; for SIP68: 10 patients, before treatment 48 (range 18-68).
In data set [2] the test system is COVID-19. The data set is described as follows: Example 7: COVID-19 case. It counts as in vivo, human. The text has this: On Mar. 24, 2020, a person developed cough, dyspnoea, myalgia, pain in hip and groin, shivers but no fever. A COVID-19 test was not performed. This occurred one week after closely working together with a colleague who developed proven severe COVID-19 requiring hospital admission.
On Jul. 12, 2020, (day 1) the patient developed new symptoms comprising shivers, joint pain (knees, hips, shoulders) and conjunctivitis of the left eye. They reported sick at work. The infection probably occurred on Jul. 1, 2020. On that day they met many people during their work at the office and in the evening they went for a drink in a bar with a few colleagues. The infection occurred despite social distancing and hand sanitising. At that time no one wore a face mask. […] On July 21 (day 10), 2020, the IgA antibody test for COVID-19 result was positive.
A few hours later a clinical deterioration occurred with extreme fatigue, chest pain and pain in the right upper arm. The treatment was converted to transdermal lidocaine cream. […] As much as 400 mg cream is applied over the skin and covered by Tegaderm transparent wound dressing. […] But after 6 hours the infusion rate was increased to 63 mg/hour (1 mg/kg/hr) due to persistent symptoms.
Day 85, after almost 3 weeks with no symptoms other than a fluctuating pain in the upper arm, the prickling sensations of the lung returned. SpO2 96%, HR 90/min, BP 95/68 mm Hg, temperature […]. […] Inhalation of the lidocaine solution was avoided.

Data set [3] concerns COVID-19. Format: in vivo.
For data set [4], the system named is chronic interstitial cystitis. The data set is described as follows: Example 13: chronic interstitial cystitis. Format: in vivo, human. The settings on record: for effect on symptoms (prior treatment): in vivo.
Data set [5] in a line: Examples 1-6: safety (ECG, metHb, confusion). To be noted: for Blood metHb: within the normal range.
Data set [6] relates to psoriatic arthritis, herpes zoster infection. Description: Example 11: psoriatic arthritis with herpes zoster.
Another data set relates to rheumatoid arthritis. The data set is described as follows: Example 30: rheumatoid arthritis. The settings on record: in vivo. Also noted: species or system human.
For data set [7], the system named is posttraumatic epileptic seizures. Description: Example 21: posttraumatic epileptic seizures. It counts as in vivo, human.
In a further data set the target is T1, P2X7R (Homo sapiens, UniProt Q99572).
T1 sequence (Q99572 1-595): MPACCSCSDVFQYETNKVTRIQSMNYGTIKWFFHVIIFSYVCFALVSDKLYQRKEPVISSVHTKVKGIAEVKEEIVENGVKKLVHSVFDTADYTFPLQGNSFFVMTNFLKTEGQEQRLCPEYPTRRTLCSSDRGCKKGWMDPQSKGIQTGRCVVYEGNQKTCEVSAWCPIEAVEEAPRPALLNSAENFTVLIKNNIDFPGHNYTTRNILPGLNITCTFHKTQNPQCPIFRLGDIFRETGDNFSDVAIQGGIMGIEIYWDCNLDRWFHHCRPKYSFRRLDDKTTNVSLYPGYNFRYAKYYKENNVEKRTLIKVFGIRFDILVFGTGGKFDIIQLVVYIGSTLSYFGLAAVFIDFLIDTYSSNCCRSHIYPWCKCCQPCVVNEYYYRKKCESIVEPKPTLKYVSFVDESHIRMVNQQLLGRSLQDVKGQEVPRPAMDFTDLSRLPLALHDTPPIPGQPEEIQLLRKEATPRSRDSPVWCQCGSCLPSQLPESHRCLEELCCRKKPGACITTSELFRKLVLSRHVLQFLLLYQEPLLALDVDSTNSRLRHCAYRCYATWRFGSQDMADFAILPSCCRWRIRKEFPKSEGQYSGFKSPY
Also noted: endogenous in cells; host or cells: human subjects (clinical trials reported elsewhere). To be noted: administered orally; cited from earlier work.

Another data set concerns ulcerative colitis. Description: Example 27: ulcerative colitis. The settings on record: oral CR 3×400 mg/d. Format: in vivo, human.
Data set [8] has as its system idiopathic Parkinson's disease.

For the compound `CN(C)C(=O)Oc1ccc[n+](C)c1` [mestinon], the “efficacy during influenza A infection” value in the data set with myasthenia gravis is “no longer effective”.

As to `CCN(CC)CC(=O)Nc1c(C)cccc1C` [lidocaine], in data set [1], the renal function result is reported as “improved”. Further, in the data set on ALS (six months, sublingual 4×100 mg/d, before 4), the “MRC muscle strength: Upper arm abduction left” value stood at 5. The “MRC muscle strength: Foot extension left” value in the data set with ALS (six months, before 1) worked out at 2. For the same compound, the “MRC muscle strength: Foot extension right” value with ALS (six months, before 1) came to 2. In addition, the “MRC muscle strength: Foot flexion left” value with ALS (six months, before 2) came out at 3. For the same compound, the “MRC muscle strength: Foot flexion right” value with ALS (six months, before 2) is on record as 3. The “MRC muscle strength: Elbow flexion left” value in the data set on ALS (six months, before 4) worked out at 4. Moreover, the “MRC muscle strength: Elbow flexion right” value with ALS (six months, before 4) amounted to 4. Further, in the data set on ALS (six months, before 4), the “MRC muscle strength: Knee flexion left” value was 5. For the same compound, the “MRC muscle strength: Knee flexion right” value in the data set with ALS (six months, before 4) was 5. In addition, in the data set with ALS (six months, before 4), the “MRC muscle strength: Upper arm abduction right” value is reported as 5. Moreover, the muscle cramping result in the data set with ALS (sublingual 4×100 mg/d, after one week) was “gradually disappeared”. Moreover, the “time to relief of pain, nausea and/or extreme fatigue” value in the data set on terminal cancer patients (7 of 10 patients) was ≤ 2 h; in the data set on terminal cancer patients (remaining patients) it was ≤ 48 h. Besides, the SIP68 with terminal cancer patients (after 3 days) was 33 (range 12-58); in the data set with terminal cancer patients (after 7 days), 28 (range 12-56). Also, the symptoms result in the data set on polymyalgia rheumatica (nocturnal continuous subdermal 0.5 mg/kg/hr, 8 hours, 2 x/week) is on record as “disappeared after the first treatment”; in the data set on COVID-19 [2] (continuous subdermal 0.5 mg/kg/hr, after a few hours (March 2020)), “practically free of symptoms”; in the data set with COVID-19 [2] (day 11, infusion 24 hours per day), “improved gradually”; with COVID-19 [2] (day 12-13, subdermal 0.63 mg/kg/hr plus amoxicilline) it was “improved significantly”; in the data set on COVID-19 [2] (day 18, subdermal 63 mg/hour (1 mg/kg/hr)), “the symptoms disappeared with the exception of the pain in the upper arm”; with COVID-19 [2] (day 23, lidocaine infusion), “reduced the symptoms to tolerable levels”. The symptoms entry was “the symptoms subsided” with COVID-19 [2] (day 61, continuous subdermal 0.63 mg/kg/hr); “improved within a few hours” in the data set on COVID-19 [2] (subdermal 0.63 mg/kg/hr, day 1 (Jul. 12, 2020)); “practically free of symptoms” in data set [4] (continuous subcutaneous 1 mg/kg/hr, after 2 days). In addition, the “time to disappearance of symptoms” value in the data set with polymyalgia rheumatica (sublingual 2×60 mg/d) was ≤ 1 h. Also, the clinical improvement entry with COVID-19 [2] (day 18, subdermal 40 mg/hour, after 1 hour) was “clinical improvement was noticeable”. For the same compound, the “time to improvement of symptoms” value in the data set with COVID-19 [2] (day 46, continuous subdermal 0.63 mg/kg/hr) is ≤ 30 min. Further, in the data set on COVID-19 [2] (from day 85, sublingual 3×100 mg/d), the “time to disappearance of prickling sensations and oppressive feeling on chest” value was 20 min. In the data set on COVID-19 [2] (reinitiated continuous subcutaneous infusion), the symptoms after relapse entry is recorded as “subsided again”. In addition, in the data set with COVID-19 [2] (subdermal infusion reinitiated Apr. 1, 2020, after a few days), the clinical condition result is on record as “the clinical condition improved”. Also, the “all symptoms except dry mouth feelings and mild fatigue” value with COVID-19 [3] (day 8, sublingual 3×60 mg/d) is given as “disappeared completely”. Moreover, the “runny nose, headache, neck pain and neck stiffness” value in the data set on COVID-19 [3] (sublingual 5×60 mg, 24 hours after initiation) is “disappeared”. Moreover, the “new ECG changes during treatment with lidocaine” value in [5] (Patient 1), in data set [5] (Patient 2), in data set [5] (Patient 3), in data set [5] (Patient 4), in data set [5] (Patient 5) and in data set [5] (Patient 6) was “No new ECG changes” each time. Besides, the “Blood metHb” value in data set [5] (Patient 1) is recorded as 0.3-0.8%; in [5] (Patient 2), 0.1-0.6%; in data set [5] (Patient 3), 0.1-0.4%; in data set [5] (Patient 4), 0.1-0.3%; in [5] (Patient 5), 0.1-0.3%; in [5] (Patient 6), 0.1-0.3%. The “signs of confusion after extubation” value in data set [5] (Patient 2, day 22, on lidocaine) is on record as “no signs of confusion”; in [5] (Patient 3, day 5) it was “no signs of confusion”; in [5] (Patient 4), “no signs of confusion”; in [5] (Patient 5, day 10), “no signs of confusion”; in data set [5] (Patient 6, day 10), “no signs of confusion”.

`CN1CC[C@]23c4c5ccc(O)c4O[C@H]2[C@@H](O)C=C[C@H]3[C@H]1C5` [Morphine]: in data set [6] (before lidocaine treatment), the “effect on herpes zoster pain” value is “did not subside the pain”. In data set [6] (in vivo), the side effect result is given as “developed obstipation”.

As to `CN(Cc1cnc2nc(N)nc(N)c2n1)c1ccc(C(=O)N[C@@H](CCC(=O)O)C(=O)O)cc1` [methotrexate], in the data set on rheumatoid arthritis, the “effect on symptoms (prior treatment)” value is recorded as “did not improve the symptoms”.

Regarding `CCN(CC)CC(=O)Nc1c(C)cccc1C` [Lidocaine hydrochloride], in data set [7] (subdermal 1 mg/kg/hour), the “EEG epileptic activity of the brain” value is reported as “had disappeared”. The “time to disappearance of seizures” value in data set [7] (subdermal 1 mg/kg/hour, 20 mg/ml solution) was ≤ 30 min.

Take `O=C(NCC12CC3CC(CC(C3)C1)C2)c1cc(CCCNCCCO)ccc1Cl` [AZD9056]: the “outcome of oral administration” value at P2X7R is recorded as “without great success”.

Take `CN1C(=O)CN=C(c2ccccc2)c2cc(Cl)ccc21` [diazepam]: the “effect on generalised epileptic seizures” value in data set [7] (repeated 10 mg intravenous) is listed as “had no effect”.

In the case of `COC[C@H](O)Cn1c(=O)cnn(-c2ccc(Cl)c(C(=O)NCC3(O)CCCCCC3)c2)c1=O` [CE-224,535 500], the “outcome of oral administration” value at P2X7R is given as “without great success”.

As for “tocilizumab: disease-modifying antirheumatic drug”, the “effect on symptoms (prior treatment)” value in the data set with rheumatoid arthritis was “did not improve the symptoms”.

As for `Nc1ccc(O)c(C(=O)O)c1` [mesalamine], the “response of symptoms in this exacerbation” value with ulcerative colitis was “did not respond”.

On to `N[C@@H](Cc1ccc(O)c(O)c1)C(=O)O` [levodopa], for which the “side effect after increasing dosage” value in [8] (in vivo) was “levodopa-induced chorea”. Further, the “symptoms (prior treatment)” value in [8] (initially, symptoms returned after 6 years) is on record as “the symptoms improved clearly”.

Take `CC(=O)Nc1ccc(O)cc1` [paracetamol]: the “effect on symptoms (prior treatment)” value in data set [4] is recorded as “had no effect on their symptoms”.

For `COc1ccc2c3c1O[C@H]1C(=O)CC[C@@]4(O)[C@@H](C2)N(C)CC[C@]314` [Oxycodone], in data set [4], the “effect on symptoms (prior treatment)” value is “had no effect on their symptoms”.

(Values after patent publication US12419848B2, “Treatment of hyperinflammatory syndrome” (priority 2020, dated 2025).)
